pIC50: −log10 of the molar value.

This experiment deals with T1, intracellular domain of human Tie2 (GST fusion protein) (Homo sapiens, UniProt Q02763).
T1 construct: intracellular domain of human Tie2 (amino acids 776-1124); made in house; host or cells: Baculovirus-infected insect cells (Hi5)
T1 sequence (Q02763 776-1124): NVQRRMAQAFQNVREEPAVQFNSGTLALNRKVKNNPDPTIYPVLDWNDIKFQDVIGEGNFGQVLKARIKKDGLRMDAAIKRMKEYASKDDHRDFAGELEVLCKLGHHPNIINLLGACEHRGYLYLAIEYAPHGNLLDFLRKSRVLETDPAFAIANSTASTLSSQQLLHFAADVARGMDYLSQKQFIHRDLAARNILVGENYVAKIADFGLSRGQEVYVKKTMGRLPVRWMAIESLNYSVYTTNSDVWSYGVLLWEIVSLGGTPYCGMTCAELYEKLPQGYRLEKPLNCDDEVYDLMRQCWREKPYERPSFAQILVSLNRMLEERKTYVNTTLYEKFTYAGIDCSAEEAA
Briefly: Tie2 kinase assay (Tie2-TR-FRET). The class given is biochemical. To be noted: ATP concentration 1 mM, in some cases means of several independent determinations. The method, then: The Tie2-inhibitory activity of the substances according to the invention was determined with the aid of one of the Tie2-TR-FRET assays described in the sections below at an ATP concentration of 1 mM (TR-FRET=Time-Resolved Fluorescence Resonance Energy Transfer):
The enzyme used was a recombinant fusion protein of glutathione S-transferase (GST) and the intracellular domain of human Tie2 (amino acids 776-1124) which was expressed in Baculovirus-infected insect cells (Hi5) and was purified by affinity chromatography on glutathione-Sepharose. Alternatively, it is also possible to use commercially available GST-His6-Tie2 fusion protein (ProQinase GmbH, Freiburg im Breisgau, Germany). The substrate used for the kinase reaction was the biotinylated peptide biotin-Ahx-[…] (C-terminus in amide form) which is commercially available (for example from Biosyntan, Berlin, Germany).
For the assay, 50 nl of a 100-fold concentrated solution of the respective test substance in DMSO were pipetted into a black low-volume 384-well microtitre plate (Greiner Bio-One, Frickenhausen, Germany) 2 μl of a solution of the Tie2 fusion protein in assay buffer [50 mM HEPES/HCl pH 7, 10 mM MgCl2, 2.5 mM MnCl2, 1 mM dithiothreitol, 0.01% (v/v) Nonidet P-40, 0.1% (w/v) bovine serum albumin (BSA), 1× Complete EDTA-free protease inhibitor mixture (Roche)] were added, and the mixture was incubated for 15 min to allow pre-binding of the substance to the enzyme prior to the kinase reaction. The kinase reaction was then started by adding 3 μl of a solution of adenosine triphosphate (ATP, 1.67 mM→final concentration in 5 μl assay volume=1 mM) and substrate (1.67 μM→final concentration in 5 μl assay volume=1 μM) in assay buffer, and the resulting mixture was incubated for a reaction time of 60 min at 22° C. The concentration of the Tie2 fusion protein was adapted to the respective activity of the enzyme and adjusted such that the assay was carried out in the linear range. Typical concentrations were in the range of 30 ng/ml.
The reaction was stopped by addition of 5 μl of a solution of TR-FRET detection reagents [200 nM streptavidin-XL665 and 2 nM PT66-Eu chelate, a europium chelate-labelled anti-phosphotyrosine antibody (Perkin-Elmer); alternatively, it is also possible to use PT66-Tb cryptate (Cisbio Bioassays, Codolet, France)] in aqueous EDTA solution[90 mM EDTA, 0.28% (w/v) bovine serum albumin (BSA) in 50 mM HEPES pH 7.5]. The resulting mixture was incubated at 22° C. for 1 h to allow formation of the complex of the biotinylated phosphorylated substrate and the detection reagents. The amount of phosphorylated substrate was then determined by measuring the resonance energy transfer from PT66-Eu chelate to streptavidin-XL665. To this end, the fluorescence emissions at 620 nm and 665 nm after excitation at 350 nm were measured in a TR-FRET measuring instrument (for example Viewlux, Perkin-Elmer). The ratio of the emissions at 665 nm and at 620 nm was taken as a measure of the amount of phosphorylated substrate.
Usually, the test substance in question was tested on the same microtitre plate at […] different concentrations in the range from 20 μM to 0.073 nM (for example at 20 μM, 5.7 μM, 1.6 μM, 0.47 μM, 0.13 μM, 38 nM, 11 nM, 3.1 nM, 0.89 nM, 0.25 nM and 0.073 nM) in duplicate for each concentration. The dilution series were prepared prior to the assay at the stage of the 100-fold concentrated solution by serial dilution (the exact concentrations may vary depending on the pipettors used in each case). IC50 values were calculated using a 4-parameter fit, with the aid of inhouse software.
Table 1 below lists the IC50 values from this assay for individual working examples (in some cases as means of several independent individual determinations): […]
(In TR-FRET formats the signal depends on donor and acceptor labels being close together.)
The molecule `Cc1ccc(NC(=O)c2cc(N3CCNCC3)cc(S(F)(F)(F)(F)F)c2)cc1-n1ccn2nc(-c3cn[nH]c3)cc12` [Example 1, N-{4-Methyl-3-[6-(1H-pyrazol-4-yl)-1H-imidazo[1,2-b]pyrazol-1-yl]phenyl}-3-(pentafluoro-λ^6-sulphanyl)-5-(piperazin-1-yl)benzamide] gave a negative logarithm of the IC50 (pIC50) of 9.52.

As for `Cc1ccc(NC(=O)c2cccc(C(F)(F)F)c2)cc1-n1ccn2nc(-c3cn[nH]c3)cc12` [Example 5, N-{4-Methyl-3-[6-(1H-pyrazol-4-yl)-1H-imidazo[1,2-b]pyrazol-1-yl]phenyl}-3-(trifluoromethyl)-benzamide], the pIC50 is 6.42.

Take `Cc1ccc(NC(=O)c2cccc(C(C)(C)C)c2)cc1-n1ccn2nc(-c3cn[nH]c3)cc12` [Example 7, 3-tert-Butyl-N-{4-methyl-3-[6-(1H-pyrazol-4-yl)-1H-imidazo[1,2-b]pyrazol-1-yl]phenyl}-benzamide]: the negative-log IC50 (pIC50) is 6.98.

`Cc1ccc(NC(=O)c2cc(N3CCN(C)CC3)cc(C(C)(C)C)c2)cc1-n1ccn2nc(-c3cn[nH]c3)cc12` [Example 8, 3-tert-Butyl-5-(4-methylpiperazin-1-yl)-N-{4-methyl-3-[6-(1H-pyrazol-4-yl)-1H-imidazo[1,2-b]-pyrazol-1-yl]phenyl}benzamide] showed a pIC50 of 8.72.

Molecule `Cc1ccc(NC(=O)c2cc(CN3CCCC3)cc(C(C)(C)C)c2)cc1-n1ccn2nc(-c3cn[nH]c3)cc12` [Example 9, 3-tert-Butyl-N-{4-methyl-3-[6-(1H-pyrazol-4-yl)-1H-imidazo[1,2-b]pyrazol-1-yl]phenyl}-5-(pyrrolidin-1-ylmethyl)benzamide] showed a negative logarithm of the IC50 (pIC50) of 8.17.

With `Cc1ccc(NC(=O)c2cc(N3CCNCC3)cc(S(F)(F)(F)(F)F)c2)cc1-n1cc(C)n2nc(-c3cn[nH]c3)cc12` [Example 10, N-{4-Methyl-3-[3-methyl-6-(1H-pyrazol-4-yl)-1H-imidazo[1,2-b]pyrazol-1-yl]phenyl}-3-(pentafluoro-λ^6-sulphanyl)-5-(piperazin-1-yl)benzamide], the pIC50 is 9.52.

Regarding `Cc1ccc(NC(=O)c2cc(N3CCN(C)CC3)cc(S(F)(F)(F)(F)F)c2)cc1-n1cc(C)n2nc(-c3cn[nH]c3)cc12` [Example 11, N-{4-Methyl-3-[3-methyl-6-(1H-pyrazol-4-yl)-1H-imidazo[1,2-b]pyrazol-1-yl]phenyl}-3-(4-methylpiperazin-1-yl)-5-(pentafluoro-λ^6-sulphanyl)benzamide], the pIC50 is 9.52.

`COc1cc(C(=O)Nc2ccc(C)c(-n3cc(C)n4nc(-c5cn[nH]c5)cc34)c2)cc(S(F)(F)(F)(F)F)c1` [Example 13, 3-Methoxy-N-{4-methyl-3-[3-methyl-6-(1H-pyrazol-4-yl)-1H-imidazo[1,2-b]pyrazol-1-yl]-phenyl}-5-(pentafluoro-λ^6-sulphanyl)benzamide] showed a negative-log IC50 (pIC50) of 8.89.

The molecule `Cc1ccc(NC(=O)c2cc(-n3ccnc3C)cc(C(F)(F)F)c2)cc1-n1cc(C)n2nc(-c3cn[nH]c3)cc12` [Example 14, 3-(2-Methyl-1H-imidazol-1-yl)-N-{4-methyl-3-[3-methyl-6-(1H-pyrazol-4-yl)-1H-imidazo[1,2-b]-pyrazol-1-yl]phenyl}-5-(trifluoromethyl)benzamide] had a negative logarithm of the IC50 (pIC50) of 9.40.

The molecule `Cc1ccc(NC(=O)c2cccc(S(F)(F)(F)(F)F)c2)cc1-n1ccn2nc(-c3cccnc3)cc12` [Example 15, N-{4-Methyl-3-[6-(pyridin-3-yl)-1H-imidazo[1,2-b]pyrazol-1-yl]phenyl}-3-(pentafluoro-λ^6-sulphanyl)benzamide] showed a pIC50 of 7.62. Compared with the last molecule, the pIC50 is 1.78 log units lower.

For `Cc1ccc(NC(=O)c2cc(N3CCNCC3)cc(S(F)(F)(F)(F)F)c2)cc1-n1ccn2nc(-c3cccnc3)cc12` [Example 17, N-{4-Methyl-3-[6-(pyridin-3-yl)-1H-imidazo[1,2-b]pyrazol-1-yl]phenyl}-3-(pentafluoro-λ^6-sulphanyl)-5-(piperazin-1-yl)benzamide], the negative-log IC50 (pIC50) is 9.52.

Take `Cc1ccc(NC(=O)c2cc(N3CCOCC3)cc(S(F)(F)(F)(F)F)c2)cc1-n1ccn2nc(-c3cccnc3)cc12` [Example 19, N-{4-Methyl-3-[6-(pyridin-3-yl)-1H-imidazo[1,2-b]pyrazol-1-yl]phenyl}-3-(morpholin-4-yl)-5-(pentafluoro-λ^6-sulphanyl)benzamide]: the negative logarithm of the IC50 (pIC50) was 9.05.

In the case of `Cc1ccc(NC(=O)c2cc(O)cc(S(F)(F)(F)(F)F)c2)cc1-n1ccn2nc(-c3cccnc3)cc12` [Example 20, 3-Hydroxy-N-{4-methyl-3-[6-(pyridin-3-yl)-1H-imidazo[1,2-b]pyrazol-1-yl]phenyl}-5-(pentafluoro-λ^6-sulphanyl)benzamide], the negative-log IC50 (pIC50) is 8.51.

On to `COc1cc(C(=O)Nc2ccc(C)c(-n3ccn4nc(-c5cccnc5)cc34)c2)cc(S(F)(F)(F)(F)F)c1` [Example 21, 3-Methoxy-N-{4-methyl-3-[6-(pyridin-3-yl)-1H-imidazo[1,2-b]pyrazol-1-yl]phenyl}-5-(pentafluoro-λ^6-sulphanyl)benzamide], for which the negative logarithm of the IC50 (pIC50) was 8.68.

`Cc1ccc(NC(=O)c2cc(OCCN)cc(S(F)(F)(F)(F)F)c2)cc1-n1ccn2nc(-c3cccnc3)cc12` [Example 22, 3-(2-Aminoethoxy)-N-{4-methyl-3-[6-(pyridin-3-yl)-1H-imidazo[1,2-b]pyrazol-1-yl]phenyl}-5-(pentafluoro-λ^6-sulphanyl)benzamide] had a pIC50 of 9.22.

`Cc1ccc(NC(=O)c2cc(OCCCN)cc(S(F)(F)(F)(F)F)c2)cc1-n1ccn2nc(-c3cccnc3)cc12` [Example 23, 3-(3-Aminopropoxy)-N-{4-methyl-3-[6-(pyridin-3-yl)-1H-imidazo[1,2-b]pyrazol-1-yl]phenyl}-5-(pentafluoro-λ^6-sulphanyl)benzamide]: the negative-log IC50 (pIC50) is 9.52. This pIC50 lies 0.30 log units higher than the previous one.

`Cc1ccc(NC(=O)c2cc(OC3CNC3)cc(S(F)(F)(F)(F)F)c2)cc1-n1ccn2nc(-c3cccnc3)cc12` [Example 24, 3-(Azetidin-3-yloxy)-N-{4-methyl-3-[6-(pyridin-3-yl)-1H-imidazo[1,2-b]pyrazol-1-yl]phenyl}-5-(pentafluoro-λ^6-sulphanyl)benzamide]: the pIC50 was 9.10.

On to `Cc1ccc(NC(=O)c2cc(OC3CCNC3)cc(S(F)(F)(F)(F)F)c2)cc1-n1ccn2nc(-c3cccnc3)cc12` (stereo not drawn) [Example 25, N-{4-Methyl-3-[6-(pyridin-3-yl)-1H-imidazo[1,2-b]pyrazol-1-yl]phenyl}-3-(pentafluoro-λ^6-sulphanyl)-5-(pyrrolidin-3-yloxy)benzamide], for which the negative-log IC50 (pIC50) was 8.72.

`Cc1ccc(NC(=O)c2cc(Cl)cc(S(F)(F)(F)(F)F)c2)cc1-n1ccn2nc(-c3cccnc3)cc12` [Example 27, 3-Chloro-N-{4-methyl-3-[6-(pyridin-3-yl)-1H-imidazo[1,2-b]pyrazol-1-yl]phenyl}-5-(pentafluoro-λ^6-sulphanyl)benzamide]: the pIC50 is 8.51.

On to `Cc1ccc(NC(=O)c2cc(C(N)=O)cc(S(F)(F)(F)(F)F)c2)cc1-n1ccn2nc(-c3cccnc3)cc12` [Example 29, N-{4-Methyl-3-[6-(pyridin-3-yl)-1H-imidazo[1,2-b]pyrazol-1-yl]phenyl}-5-(pentafluoro-λ^6-sulphanyl)isophthalamide], for which the negative logarithm of the IC50 (pIC50) was 8.70.

In turn, `Cc1cc(C(=O)Nc2ccc(C)c(-n3ccn4nc(-c5cccnc5)cc34)c2)cc(S(F)(F)(F)(F)F)c1` [Example 30, 3-Methyl-N-{4-methyl-3-[6-(pyridin-3-yl)-1H-imidazo[1,2-b]pyrazol-1-yl]phenyl}-5-(pentafluoro-λ^6-sulphanyl)benzamide] gave a pIC50 of 8.70.

A word on the pIC50: it is the negative decadic logarithm of the IC50, by convention in mol/L. A lower pIC50 goes with a large IC50.

(Values after patent US20150005288A1, “SUBSTITUTED PHENYLIMIDAZOPYRAZOLES AND USE THEREOF” (Bayer Intellectual Property GmbH, priority 2012, published 2015).)
